We go through two compounds from patent EP1509285B1, “SYNERGISTIC COMPOSITION OF TRANS-TETRACOS-15-ENOIC ACID AND APOCYNIN AND USE THEREOF” (COUNCIL OF SCIENTIFIC AND INDUSTRIAL RESEARCH, priority 2002, dated 2003).

The subject of assay [1] is CCl4 induced hepatic injury. Put plainly: Hepatoprotective activity (in vivo) against CCl4 induced hepatic injury. The conditions noted are these: rats; for Hepatic parameters Glutathione / Hepatic parameters Lipid peroxidation / Serum parameters ALP / Serum parameters Bilirubin / Serum parameters Triglycerides / Serum parameters GOT / Serum parameters GPT: 50 mg kg-1 p.o. at 48h, 24h, 2h before and 6h after CCl4 0.5 ml kg-1 p.o.; for Serum parameters GOT / Serum parameters GPT: unit is µmole pyruvate/min/L; for hepatoprotective activity percent, ALP / hepatoprotective activity percent, Bilirubin / hepatoprotective activity percent, GOT / hepatoprotective activity percent, GPT / hepatoprotective activity percent, Glutathione / hepatoprotective activity percent, Lipid peroxidation / hepatoprotective activity percent, Triglycerides: CCl4, 50 mg kg-1 p.o., H = [1-(TC-V/VC-V)] × 100. On the procedure:
i. Animals: The pharmacological studies are conducted on Wistar albino rats (150-180g) and Swiss albino mice (25-30g) of either sex, colony - bred in the Institute's animal house. After procurement, all the animals are divided into different groups and are left for one week for acclimatization to experimentation room and are maintained on standard conditions (23±2°C, 60-70 % relative humidity and 12 h photo period). The animals are fed with standard rodents pellet diet and water ad libitum. There are six animals in each group except for general behaviour and acute toxicity studies where ten animals are used in each group.
Carbon tetrachloride (CCl4): CCl4 is one of the most powerful hepatotoxins (in term of severity of injury). It causes toxic necrosis, which leads to biochemical changes having clinical features similar to those of acute viral hepatitis (Vogel, 1977, Bramanti et. al., 1978, Kumar et. al., 1992). Liver injury is produced by administration of CCl4 mixed with liquid paraffin. Animals are given single dose of CCl4 (50 µl.kg^-1, p.o.) in acute single treatment and (0.5 ml.kg^-1, p.o.) in case of multitreatment with drug. It is administered orally (p.o) by gastric intubation. The control animals received the equal volume of liquid paraffin. (Table 3, 4).
Freshly prepared suspension (1%, w/v) in 0.2% gum acacia in normal saline is used for all the experiments except for toxicity studies where (10 %, w/v) suspension is used. Silymarin suspension (1%, w/v) in 0.2 % gum acacia is used as a reference standard (positive control).
Treatment of test material before and after hepatotoxin: The doses of TCA and APO individually and in mixture, silymarin (50 mg/kg, p.o. each) and vehicle (normal saline) are fed to different groups of rats at 48 hours, 24 hours and 2 hours before and 6 hours after hepatotoxin (CCl4 , 0.5 ml.kg^-1, p.o.) intoxication. Blood is collected from orbital sinus in all the animals 18 hours after last treatment and serum separated for different estimations. All the animals are then killed by decapitation, their livers are quickly excised, cleaned of adhering tissue, weighed and homogenised in phosphate buffer saline for the analysis of hepatic parameters (Agarwal and Mehendale, 1983, Klingensmith and Mehendale, 1982, Zimmerman, 1973, Edmondson and Peter, 1985, Mitchell, et al, 1973). (Table 3-4).
• GPT and GOT: Pyruvate formed by transamination reaction is determined spectrophotometrically after reaction with 2,4-dinitrophenylhydrazine (Reitman and Frankel, 1957). • ALP : p-nitrophenol formed in alkaline medium is measured spectrophotometrically using p-nitrophenyl phosphate as substrate (Walter and Schutt, 1974). • Bilirubin : Total bilirubin is measured by diazotization reaction with NaNO2 (Malloy and Evelyn, 1937) • Triglycerides : Triglycerides from serum are extracted with isopropanol and sopanified with KOH. The liberated glycerol is converted to formaldehyde by periodate and determined after reaction with acetyl acetone. Triolein is used as standard (Neri and Firings, 1973). • Glutathione: It is determined after deproteination by reaction with DTNB (Ellman 1959 as modified by David 1987). • Lipid peroxidation: Thiobarbituric acid reacting substances are determined spectrophotometrically at 535 nm. Buege. and Aust. (1978).
Hepatoprotective activity (H) is calculated by the following equation: H = [1-(TC-V/VC-V)] × 100 [formula]
Where TC, VC, and V are drug + toxin, vehicle + toxin and vehicle treated groups of animals respectively.

The subject of assay [2] is galactosamine, paracetamol and CCl4 as hepatotoxins. Put plainly: Earlier RRL Jammu study: hepatoprotective effect against galactosamine, paracetamol and CCl4 as hepatotoxins, silymarin as reference. In kind it is in vivo. The conditions noted are these: synthesized constituent; silymarin as reference material.
[3] abbreviates: Table 4 (own control groups), mean ± S. E.

Regarding `COc1cc(C(C)=O)ccc1O` [APO, Apocynin], in assay [1] (setting [3]), the “Hepatic parameters Glutathione” value is given as 4.44±0.26 µ mole GSH/g liver, the “Hepatic parameters Lipid peroxidation” value amounted to 48.12±2.28 n moles MDA/g liver, the “Serum parameters ALP” value is recorded as 26.66±2.06 µ mole ofp-nitrophenol formed/min/ L and the “Serum parameters Bilirubin” value was 0.37±0.01 mg %. Also, in assay [1] (setting [3]), the “Serum parameters Triglycerides” value is 28.00±2.39 mg %, the “Serum parameters GOT” value is listed as 489.39±66.82 Units and the “Serum parameters GPT” value came to 838.58±69.65 Units. In assay [1] (Table 4), the “hepatoprotective activity percent, ALP” value is recorded as “(86.05) percent”; the “hepatoprotective activity percent, Bilirubin” value was “(48.94) percent”; the “hepatoprotective activity percent, GOT” value is recorded as “(39.31) percent”; the “hepatoprotective activity percent, GPT” value is on record as “(47.86) percent”. Moreover, in assay [1] (Table 4), the “hepatoprotective activity percent, Glutathione” value is listed as “(40.73) percent”; the “hepatoprotective activity percent, Lipid peroxidation” value is “(42.77) percent”; the “hepatoprotective activity percent, Triglycerides” value is given as “(36.68) percent”.

Take `CCCCCCCC/C=C/CCCCCCCCCCCCCC(=O)O` [TCA, trans-tetracos-15-enoic acid]: the “hepatoprotective effect against galactosamine, paracetamol and CCl4 as hepatotoxins” value in assay [2] is reported as “dose related hepatoprotective effect”. In assay [1] (Table 3, mean ± S.E.), the “Hepatic parameters Glutathione” value is reported as 5.35±0.51 µ mole GSH/g liver, the “Hepatic parameters Lipid peroxidation” value was found to be 46.88±2.58 n moles MDA/g liver, the “Serum parameters ALP” value is given as 28.72±3.90 µ mole of p-nitrophenol formed/min/ L and the “Serum parameters Bilirubin” value came out at 0.35±0.02 mg %. Besides, in assay [1] (Table 3, mean ± S.E.), the “Serum parameters Triglycerides” value is 23.53±1.77 mg %, the “Serum parameters GOT” value came out at 409.73±46.57 Units and the “Serum parameters GPT” value was 324.84±42.09 Units. Further, in assay [1] (Table 3), the “hepatoprotective activity percent, ALP” value is given as “(81.78) percent”; the “hepatoprotective activity percent, Bilirubin” value is given as “(55.55) percent”; the “hepatoprotective activity percent, GOT” value is reported as “(62.16) percent”; the “hepatoprotective activity percent, GPT” value is “(74.63) percent”. In assay [1] (Table 3), the “hepatoprotective activity percent, Glutathione” value is “(52.92) percent”; the “hepatoprotective activity percent, Lipid peroxidation” value is on record as “(64.33) percent”; the “hepatoprotective activity percent, Triglycerides” value is reported as “(66.05) percent”.
